Test results reported in patent US5574006A, “Nasally administrable peptide compositions on hydroxyapatite carriers” (Dott Research Laboratory, priority 1993, dated 1996).

Experiments:
[1] = parameters: species or system healthy male adults; settings: in vivo
Procedure: A nasally administrable composition in powdery form was prepared by formulating salmon calcitonin as a physiologically active peptide at the rate of 200 MRC (IU) per 25 mg with hydroxyapatite as a carrier having a mean particle size ranging from 40 to 45 μm.
(§1) The resulting composition was nasally administered once at the dose of 25 mg to six healthy male adults and the blood (2.5 ml) was collected from each of the tested adults prior to administration and then at 5, 10, 15, 20, 30, 45, 60, 90, 120 and 180 minutes after administration. The concentration of the salmon calcitonin in each of the collected blood samples was assayed with a standard RIA assay kit.

[2] = parameters: species or system healthy male adults; settings: in vivo; remark: listed apart in the source
Procedure: A nasally administrable composition in powdery form was prepared by formulating salmon calcitonin as a physiologically active peptide at the rate of 200 MRC (IU) per 25 mg with hydroxyapatite as a carrier.
as §1

blood sugar = assay: Average fall of the blood sugar in rabbits after insulin administration; assay type: in vivo, New Zealand rabbits; settings: S.C., 2 IU/rabbit
Procedure: The resulting composition was nasally administered once to six male New Zealand rabbits. The average fall of the blood sugar was measured and represented in percentage (%) at 0, 15, 30, 60, 120 and 180 minutes after administration. For comparison, 2 (IU)/rabbit of insulin was administered subcutaneously to six male New Zealand rabbits and the average fall of the blood sugar was measured and represented in […] (%) at 0, 60, 120, 240 and 360 minutes after administration.

Substance	absorption of calcitonin (in words) [1]	absorption of calcitonin through the nasal cavity (in words) [2]	Average fall of the blood sugar (blood sugar; 0 min) [%]	Average fall of the blood sugar (blood sugar; 60 min) [%]	Average fall of the blood sugar (blood sugar; 120 min) [%]	Average fall of the blood sugar (blood sugar; 240 min) [%]	Average fall of the blood sugar (blood sugar; 360 min) [%]
hydroxyapatite	effective to attain better absorption of calcitonin	effective to attain better absorption of calcitonin through the nasal cavity					
insulin [Comparison]			100	57	56	84	94
